Read-outs that look alike come from different tables or passages of the source.
Key:
[1] = Hydrolysis Assay - Condition 1 (SGF); type: physicochemical; details: SGF with pepsin pH 1.5, 37° C., 0.5 mM
Protocol: 50 μL of compound (10 mM) in DMSO was diluted into 950 μL of Simulated Gastric Fluid (SGF) with pepsin (pH 1.5) to a final concentration of 0.5 mM. The hydrolysis kinetics were conducted at 37° C. and measured by LCMS at a certain time interval.
(§1) The corresponding LCMS chromatogram were recorded and the conversions were calculated by integration of each peak.
(§2) • 1) LCMS spectra were obtained using Agilent 1200G1956A or SHIMADZU LCMS-2020. Standard LCMS conditions were as follows (running time 1.55 minutes): • Acidic condition: Mobile Phase A: 0.0375% TFA in water (v/v). Mobile Phase B: 0.01875% TFA in acetonitrile (v/v); Column: Kinetex EVO C18 30*2.1 mm, 5 μm. • Basic condition: Mobile Phase A: 0.025% NH3·H2O in water (v/v). Mobile Phase B: Acetonitrile; Column: Kinetex EVO C18 2.1×30 mm, 5 μm. • 2) Conversion (%)=peak area 1/(peak area 1+peak area 2)*100%, peak area 1 is the integration of hydrolyzed product, peak area 2 is the integration of starting material.

[2] = Hydrolysis Assay - Condition 2 (DI Water); type: physicochemical; details: 25° C., 0.5 mM
Protocol: 50 μL of compound (10 mM) in DMSO was diluted into 950 μL of DI water to a final concentration of 0.5 mM. The hydrolysis kinetics were conducted at 25° C. and measured by LCMS at a certain time interval.
as §1, §2

[3] = type: in vitro ADME, mouse; details: 5 μM, 37° C.; for Mouse Plasma Prodrug (%): prodrug remaining; for Mouse Plasma Metabolite (%): metabolite (mesembrine) accumulated
Protocol: (§3) Each test was carried out in duplicate for each time point; 0 min, 15 min, 30 min, 60 min, 120, 240 min. […]

[4] = type: in vitro ADME, human; details: 5 μM, 37° C.; for Human Plasma Prodrug (%): prodrug remaining; for Human Plasma Metabolite (%): metabolite (mesembrine) accumulated
Protocol: as §3

[5] = Plasma Stability Assay (Example A3), rat plasma; type: in vitro ADME; details: prodrug remaining, 10 μM, 37° C.
Description: (§4) The data is represented in the table below.

[6] = Plasma Stability Assay (Example A3), human plasma; type: in vitro ADME; details: prodrug remaining, 10 μM, 37° C.
Description: as §4

| Structure (SMILES) | Condition 1 Conversion (%) ([1]; 1 min) | Condition 1 Conversion (%) ([1]; 5 min) | Condition 1 Conversion (%) ([1]; 30 min) | Condition 1 Conversion (%) ([1]; 1 h) | Condition 1 Conversion (%) ([1]; 4 h) | Condition 1 Conversion (%) ([1]; 24 h) | Condition 2 Conversion (%) ([2]; 1 min) | Condition 2 Conversion (%) ([2]; 5 min) | Mouse Plasma Prodrug (%) ([3]; 0 min) | Mouse Plasma Prodrug (%) ([3]; 15 min) | Mouse Plasma Prodrug (%) ([3]; 30 min) | Mouse Plasma Prodrug (%) ([3]; 60 min) | Mouse Plasma Prodrug (%) ([3]; 120 min) | Mouse Plasma Prodrug (%) ([3]; 240 min) | Human Plasma Prodrug (%) ([4]; 0 min) | Human Plasma Prodrug (%) ([4]; 15 min) | Human Plasma Prodrug (%) ([4]; 30 min) | Human Plasma Prodrug (%) ([4]; 60 min) | Human Plasma Prodrug (%) ([4]; 120 min) | Human Plasma Prodrug (%) ([4]; 240 min) | other results |
| --- | --- | --- | --- | --- | --- | --- | --- | --- | --- | --- | --- | --- | --- | --- | --- | --- | --- | --- | --- | --- | --- |
| COc1ccc([C@@]23CCC(OC(=O)N4CCN(C)CC4)=C[C@@H]2N(C)CC3)cc1OC [Compound 327, [(3aS,7aS)-3a-(3,4-dimethoxyphenyl)-1-methyl-3,4,5,7a-tetrahydro-2H-indol-6-yl]4-methylpiperazine-1-carboxylate] | 0 | 0 | 0 | 0 | 0 | 0 | 0 | 0 | 100 | >99 | >99 | >99 | >99 | >99 | 100 | >99 | 98.9 | >99 | >99 | 94.4 | Condition 2 Conversion (%) ([2]; 30 min): 0%; Condition 2 Conversion (%) ([2]; 1 h): 0%; Condition 2 Conversion (%) ([2]; 4 h): 0%; Condition 2 Conversion (%) ([2]; 24 h): 0% |
| COc1ccc([C@@]23CCC(OP(=O)(Oc4ccccc4)Oc4ccccc4)=C[C@@H]2N(C)CC3)cc1OC [Compound 320, [(3aS,7aS)-3a-(3,4-dimethoxyphenyl)-1-methyl-3,4,5,7a-tetrahydro-2H-indol-6-yl]diphenyl phosphate] | – | – | – | – | – | – | – | – | 100 | 58.5 | 46.5 | 30.7 | 19.4 | 11.7 | 100 | 95.7 | 98.5 | 95.7 | 98.2 | 95.3 | Mouse Plasma Metabolite (%) ([3]; 0 min): 11.8%; Mouse Plasma Metabolite (%) ([3]; 15 min): 15.9%; Mouse Plasma Metabolite (%) ([3]; 30 min): 16.9%; Mouse Plasma Metabolite (%) ([3]; 60 min): 18.6%; Mouse Plasma Metabolite (%) ([3]; 120 min): 19.1%; Mouse Plasma Metabolite (%) ([3]; 240 min): 18.9%; Human Plasma Metabolite (%) ([4]; 0 min): 7.6%; Human Plasma Metabolite (%) ([4]; 15 min): 8.0%; Human Plasma Metabolite (%) ([4]; 30 min): 8.5%; Human Plasma Metabolite (%) ([4]; 60 min): 8.6%; Human Plasma Metabolite (%) ([4]; 120 min): 9.4%; Human Plasma Metabolite (%) ([4]; 240 min): 10.4% |
| COc1ccc([C@@]23CCC(OP(=O)(O)O)=C[C@@H]2N(C)CC3)cc1OC [Compound 359, [(3aS,7aS)-3a-(3,4-dimethoxyphenyl)-1-methyl-3,4,5,7a-tetrahydro-2H-indol-6-yl] dihydrogen phosphate] | – | – | – | – | – | – | – | – | 100 | >99 | 82.7 | 79.0 | 50.7 | 59.1 | 100 | 69.0 | 65.1 | 50.4 | 32.8 | 25.6 | Mouse Plasma Metabolite (%) ([3]; 0 min): 0.0%; Mouse Plasma Metabolite (%) ([3]; 15 min): 0.0%; Mouse Plasma Metabolite (%) ([3]; 30 min): 0.0%; Mouse Plasma Metabolite (%) ([3]; 60 min): 0.0%; Mouse Plasma Metabolite (%) ([3]; 120 min): 0.0%; Mouse Plasma Metabolite (%) ([3]; 240 min): 0.0%; Human Plasma Metabolite (%) ([4]; 0 min): 0.0%; Human Plasma Metabolite (%) ([4]; 15 min): 0.0%; Human Plasma Metabolite (%) ([4]; 30 min): 0.0%; Human Plasma Metabolite (%) ([4]; 60 min): 0.0%; Human Plasma Metabolite (%) ([4]; 120 min): 15.7%; Human Plasma Metabolite (%) ([4]; 240 min): 23.0% |
| CCN(C)C(=O)OC1=C[C@@H]2N(C)CC[C@]2(c2ccc(OC)c(OC)c2)CC1 [Compound 326, [(3aS,7aS)-3a-(3,4-dimethoxyphenyl)-1-methyl-3,4,5,7a-tetrahydro-2H-indol-6-yl] N-ethyl-N-methyl-carbamate] | 0 | 0 | 0 | 0 | 0 | 0 | 0 | 0 | 100.0 | >99 | 96.6 | >99 | >99 | 98.5 | 100.0 | 98.2 | 99.9 | 98.4 | >99 | 93.9 | Condition 2 Conversion (%) ([2]; 30 min): 0%; Condition 2 Conversion (%) ([2]; 1 h): 0%; Condition 2 Conversion (%) ([2]; 4 h): 0%; Condition 2 Conversion (%) ([2]; 24 h): 0% |
| COc1ccc([C@@]23CCC(OC(=O)N(C)C)=C[C@@H]2N(C)CC3)cc1OC [Compound 324, [(3aS,7aS)-3a-(3,4-dimethoxyphenyl)-1-methyl-3,4,5,7a-tetrahydro-2H-indol-6-yl] N,N-dimethylcarbamate] | 0 | 0 | 0 | 0 | 0 | 0 | 0 | 0 | 100.0 | 97.4 | 94.4 | 94.9 | 92.6 | 88.9 | 100.0 | 98.2 | 98.7 | >99 | >99 | 96.5 | Condition 2 Conversion (%) ([2]; 30 min): 0%; Condition 2 Conversion (%) ([2]; 1 h): 0%; Condition 2 Conversion (%) ([2]; 4 h): 0%; Condition 2 Conversion (%) ([2]; 24 h): 0% |
| COc1ccc([C@@]23CCC(OP(=O)(O)OCOC(=O)OC(C)C)=C[C@@H]2N(C)CC3)cc1OC [Compound 410, [[(3aS,7aS)-3a-(3,4-dimethoxyphenyl)-1-methyl-3,4,5,7a-tetrahydro-2H-indol-6-yl]oxy-hydroxy-phosphoryl]oxymethyl isopropyl carbonate] | – | – | – | – | – | – | – | – | – | – | – | – | – | – | – | – | – | – | – | – | Rat Plasma Prodrug (%) ([5]; 0 min): 100.0%; Rat Plasma Prodrug (%) ([5]; 10 min): 63.0%; Rat Plasma Prodrug (%) ([5]; 30 min): 25.4%; Rat Plasma Prodrug (%) ([5]; 60 min): 7.1%; Rat Plasma Prodrug (%) ([5]; 120 min): 0.52%; Rat Plasma Prodrug (%) ([5]; 240 min): 0.01%; Human Plasma Prodrug (%) ([6]; 0 min): 100.0%; Human Plasma Prodrug (%) ([6]; 10 min): 96.3%; Human Plasma Prodrug (%) ([6]; 30 min): 98.8%; Human Plasma Prodrug (%) ([6]; 60 min): 92.7%; Human Plasma Prodrug (%) ([6]; 120 min): 88.2%; Human Plasma Prodrug (%) ([6]; 240 min): 75.5% |

Source: patent publication US20240408119A1, “DELIVERY OF THERAPEUTIC ALKALOID COMPOUNDS” (priority 2022, published 2024)
